In PubChem BioAssay AID1963970 (Molecular Pharmacology Branch, DTP, NCI, 2024):
Each block holds one compound with its values, some of them ahead of it.

Test system: 931267-113-T-J1-PDC multicell spheroid viability
Test: Anticancer human tumor 931267-113-T-J1-PDC patient-derived colon adenocarcinoma cell line growth inhibition [PI3K]
Conditions: for IC50: curve of first compound; for viability, T/C: stronger effect = lower value
How it was run: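 Stroma-containing spheroids: tumor line, pooled-donor HUVEC, hMSC. Treatments: targeted agents with PI3K inhibitors. Dosing: clinically relevant, half-log spacing, 10 microM ceiling without known Cmax. Read-out: cell viability.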

[1] = second compound 0.0316 µM, first compound 0.0316 µM
[2] = second compound 0.0316 µM, first compound 0.1 µM
[3] = second compound 0.1 µM, first compound 0.0316 µM
[4] = second compound 0.1 µM, first compound 0.1 µM
[5] = second compound 0.316 µM, first compound 0.0316 µM
[6] = second compound 0.316 µM, first compound 0.1 µM
[7] = second compound 1 µM, first compound 0.0316 µM
[8] = second compound 1 µM, first compound 0.1 µM
[9] = second compound 3.16 µM, first compound 0.0316 µM
[10] = second compound 3.16 µM, first compound 0.1 µM
[11] = second compound 10 µM, first compound 0.0316 µM
[12] = second compound 10 µM, first compound 0.1 µM
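Further: viability read 7 days after compound addition.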

IC50 (second compound 0.0316 µM): > 0.1 µM
IC50 (second compound 0.1 µM): > 0.1 µM
IC50 (second compound 0.316 µM): > 0.1 µM
IC50 (second compound 1 µM): > 0.1 µM
IC50 (second compound 3.16 µM): > 0.1 µM
IC50 (second compound 10 µM): > 0.1 µM
Structure (SMILES): CC(C)n1nc(-c2ccc3oc(N)nc3c2)c2c(N)ncnc21 + CC(Nc1ncnc2nc[nH]c12)c1cc2cccc(Cl)c2c(=O)n1-c1ccccc1
viability, T/C (second compound 0.0316 µM, first compound 0.000316 µM): 101%
viability, T/C (second compound 0.0316 µM, first compound 0.001 µM): 103%
viability, T/C (second compound 0.0316 µM, first compound 0.00316 µM): 97.8%
viability, T/C (second compound 0.0316 µM, first compound 0.01 µM): 88.7%
viability, T/C [1]: 92.6%
viability, T/C [2]: 51.7%
viability, T/C (second compound 0.1 µM, first compound 0.000316 µM): 106%
viability, T/C (second compound 0.1 µM, first compound 0.001 µM): 104%
viability, T/C (second compound 0.1 µM, first compound 0.00316 µM): 92.7%
viability, T/C (second compound 0.1 µM, first compound 0.01 µM): 89.5%
viability, T/C [3]: 79.8%
viability, T/C [4]: 55.8%
viability, T/C (second compound 0.316 µM, first compound 0.000316 µM): 113%
viability, T/C (second compound 0.316 µM, first compound 0.001 µM): 105%
viability, T/C (second compound 0.316 µM, first compound 0.00316 µM): 93%
viability, T/C (second compound 0.316 µM, first compound 0.01 µM): 94.2%
viability, T/C [5]: 86.5%
viability, T/C [6]: 54.1%
viability, T/C (second compound 1 µM, first compound 0.000316 µM): 95.6%
viability, T/C (second compound 1 µM, first compound 0.001 µM): 98%
viability, T/C (second compound 1 µM, first compound 0.00316 µM): 91%
viability, T/C (second compound 1 µM, first compound 0.01 µM): 92.2%
viability, T/C [7]: 87.5%
viability, T/C [8]: 57%
viability, T/C (second compound 3.16 µM, first compound 0.000316 µM): 93.8%
viability, T/C (second compound 3.16 µM, first compound 0.001 µM): 95%
viability, T/C (second compound 3.16 µM, first compound 0.00316 µM): 88.4%
viability, T/C (second compound 3.16 µM, first compound 0.01 µM): 88.8%
viability, T/C [9]: 81.8%
viability, T/C [10]: 52.5%
viability, T/C (second compound 10 µM, first compound 0.000316 µM): 87.5%
viability, T/C (second compound 10 µM, first compound 0.001 µM): 83.9%
viability, T/C (second compound 10 µM, first compound 0.00316 µM): 91.6%
viability, T/C (second compound 10 µM, first compound 0.01 µM): 84.3%
viability, T/C [11]: 74.8%
viability, T/C [12]: 58.9%

IC50 (second compound 0.0316 µM): 7.07 µM
IC50 (second compound 0.1 µM): 7.1 µM
IC50 (second compound 0.316 µM): 7.17 µM
IC50 (second compound 1 µM): 6.84 µM
IC50 (second compound 3.16 µM): 7.09 µM
IC50 (second compound 10 µM): 6.79 µM
Structure (SMILES): CC1(C)CCC(CN2CCN(c3ccc(C(=O)NS(=O)(=O)c4ccc(NCC5CCOCC5)c([N+](=O)[O-])c4)c(Oc4cnc5[nH]ccc5c4)c3)CC2)=C(c2ccc(Cl)cc2)C1 + CC(Nc1ncnc2nc[nH]c12)c1cc2cccc(Cl)c2c(=O)n1-c1ccccc1
viability, T/C [1]: 105%
viability, T/C [2]: 105%
viability, T/C (second compound 0.0316 µM, first compound 0.316 µM): 102%
viability, T/C (second compound 0.0316 µM, first compound 1 µM): 110%
viability, T/C (second compound 0.0316 µM, first compound 3.16 µM): 99.3%
viability, T/C (second compound 0.0316 µM, first compound 10 µM): 28.5%
viability, T/C [3]: 113%
viability, T/C [4]: 112%
viability, T/C (second compound 0.1 µM, first compound 0.316 µM): 105%
viability, T/C (second compound 0.1 µM, first compound 1 µM): 106%
viability, T/C (second compound 0.1 µM, first compound 3.16 µM): 107%
viability, T/C (second compound 0.1 µM, first compound 10 µM): 25.9%
viability, T/C [5]: 103%
viability, T/C [6]: 98.2%
viability, T/C (second compound 0.316 µM, first compound 0.316 µM): 106%
viability, T/C (second compound 0.316 µM, first compound 1 µM): 110%
viability, T/C (second compound 0.316 µM, first compound 3.16 µM): 101%
viability, T/C (second compound 0.316 µM, first compound 10 µM): 29.1%
viability, T/C [7]: 105%
viability, T/C [8]: 101%
viability, T/C (second compound 1 µM, first compound 0.316 µM): 95.3%
viability, T/C (second compound 1 µM, first compound 1 µM): 103%
viability, T/C (second compound 1 µM, first compound 3.16 µM): 92.4%
viability, T/C (second compound 1 µM, first compound 10 µM): 28.9%
viability, T/C [9]: 101%
viability, T/C [10]: 107%
viability, T/C (second compound 3.16 µM, first compound 0.316 µM): 97.4%
viability, T/C (second compound 3.16 µM, first compound 1 µM): 107%
viability, T/C (second compound 3.16 µM, first compound 3.16 µM): 99.3%
viability, T/C (second compound 3.16 µM, first compound 10 µM): 29%
viability, T/C [11]: 92.9%
viability, T/C [12]: 87.7%
viability, T/C (second compound 10 µM, first compound 0.316 µM): 98.4%
viability, T/C (second compound 10 µM, first compound 1 µM): 97.3%
viability, T/C (second compound 10 µM, first compound 3.16 µM): 92.6%
viability, T/C (second compound 10 µM, first compound 10 µM): 28.4%
